Data: ChEMBL document CHEMBL3352320, “Novel benzothiazinones (BTOs) as allosteric modulator or substrate competitive inhibitor of glycogen synthase kinase 3β (GSK-3β) with cellular activity of promoting glucose uptake” (Bioorg Med Chem Lett, 2014)
Active and inactive are the calls of the source. No cut-off for these calls is given here. Non-standard residues stand in square brackets, D forms with d. Residues, ends and D or L forms follow the SMILES beside them. *: point of attachment. Myristoyl = CCCCCCCCCCCCCC(=O)*; pS = N[C@@H](COP(=O)(O)O)C(=O)O

Columns and labels:
[1] = target: Platelet-derived growth factor receptor beta (Homo sapiens) (UniProt P09619); assay: Inhibition of PDGFRbeta (unknown origin) at 100 uM
[2] = target: Platelet-derived growth factor receptor alpha (Homo sapiens) (UniProt P16234); assay: Inhibition of PDGFRalpha (unknown origin) at 100 uM
[3] = target: T1, Glycogen synthase kinase-3 beta (Homo sapiens, UniProt P49841); assay: Inhibition of GSK3beta (unknown origin) using peptide substrate GS2 assessed as ATP remaining by Kinase-Glo luminescent kinase assay
Target sequence in this assay (P49841 whole entry): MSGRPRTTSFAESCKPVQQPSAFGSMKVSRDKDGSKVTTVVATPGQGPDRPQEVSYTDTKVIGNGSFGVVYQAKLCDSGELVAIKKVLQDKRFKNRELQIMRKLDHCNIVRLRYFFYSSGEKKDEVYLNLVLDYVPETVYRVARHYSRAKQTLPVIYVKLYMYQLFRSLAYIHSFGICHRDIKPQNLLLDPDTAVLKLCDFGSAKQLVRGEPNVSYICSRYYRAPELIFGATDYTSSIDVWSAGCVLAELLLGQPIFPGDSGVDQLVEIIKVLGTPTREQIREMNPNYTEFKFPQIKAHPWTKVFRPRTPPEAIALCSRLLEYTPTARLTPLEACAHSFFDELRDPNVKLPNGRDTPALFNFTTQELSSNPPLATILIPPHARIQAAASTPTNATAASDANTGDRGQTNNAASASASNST

[4] = target: T1, Glycogen synthase kinase-3 beta; assay: Inhibition of GSK3beta in human […] cells assessed as decrease in ratio of phosphorylated GS/GS at 10 uM after 12 hrs by Western blot analysis; assay type: cell-based
Target sequence in this assay (P49841 whole entry, looked up): as the sequence (P49841 whole entry) above

HepG2 [5] = assay: Increase in glucose incorporation in human HepG2 cells at 10 uM after 12 hrs by glucose assay; assay type: functional, cell-based
3T3-L1 [6] = assay: Increase in glucose incorporation in mouse 3T3L1 cells at 10 uM after 12 hrs by glucose assay; assay type: functional, cell-based
[7] = target: Receptor tyrosine-protein kinase erbB-4 (Homo sapiens) (UniProt Q15303); assay: Inhibition of ErbB4 (unknown origin) at 100 uM
3T3-L1 [8] = assay: Increase in glucose incorporation in mouse 3T3L1 cells at 2 uM after 12 hrs by glucose assay; assay type: functional, cell-based
[9] = target: T1, Glycogen synthase kinase-3 beta; settings: HepG2, 2 uM
Target sequence in this assay (P49841 whole entry, looked up): as the sequence (P49841 whole entry) above
Description: Inhibition of GSK3beta in human HepG2 cells assessed as decrease in ratio of phosphorylated GS/GS at 2 uM after 12 hrs by Western blot analysis

HepG2 [10] = assay: Increase in glucose incorporation in human HepG2 cells at 2 uM after 12 hrs by glucose assay; assay type: functional, cell-based
[11] = target: T1, Glycogen synthase kinase-3 beta; settings: HepG2, 34 uM
Target sequence in this assay (P49841 whole entry, looked up): as the sequence (P49841 whole entry) above
Description: Inhibition of GSK3beta in human HepG2 cells assessed as decrease in ratio of phosphorylated GS/GS at 34 uM after 12 hrs by Western blot analysis

3T3-L1 [12] = assay: Increase in glucose incorporation in mouse 3T3L1 cells at 34 uM after 12 hrs by glucose assay; assay type: functional, cell-based
HepG2 [13] = assay: Increase in glucose incorporation in human HepG2 cells at 34 uM after 12 hrs by glucose assay; assay type: functional, cell-based
[14] = target: Proto-oncogene tyrosine-protein kinase Src (Homo sapiens) (UniProt P12931); settings: at 100 µM
Description: Inhibition of c-Src (unknown origin) at 100 uM

[15] = target: Fibroblast growth factor receptor 1 (Homo sapiens) (UniProt P11362); assay: Inhibition of FGFR1 (unknown origin) at 100 uM
[16] = target: Cyclin-dependent kinase 1 (Homo sapiens) (UniProt P06493); assay: Inhibition of CDK1 (unknown origin) at 100 uM
[17] = target: Protein kinase C alpha type (Homo sapiens) (UniProt P17252); assay: Inhibition of PKCalpha (unknown origin) at 100 uM
[18] = target: Vascular endothelial growth factor receptor 2 (Homo sapiens) (UniProt P35968); assay: Inhibition of KDR (unknown origin) at 100 uM
[19] = target: T1, Glycogen synthase kinase-3 beta; assay: Competitive inhibition of GSK3beta (unknown origin) using peptide substrate GS2 assessed as ATP remaining by Kinase-Glo luminescent kinase assay
Target sequence in this assay (P49841 whole entry, looked up): as the sequence (P49841 whole entry) above

[20] = target: Casein kinase II (Homo sapiens) (UniProt P67870+P68400+P19784); assay: Inhibition of CK2 (unknown origin) at 100 uM; assay type: protein-complex assay

Chain of Receptor tyrosine-protein kinase erbB-4 (Homo sapiens) (Q15303 whole entry): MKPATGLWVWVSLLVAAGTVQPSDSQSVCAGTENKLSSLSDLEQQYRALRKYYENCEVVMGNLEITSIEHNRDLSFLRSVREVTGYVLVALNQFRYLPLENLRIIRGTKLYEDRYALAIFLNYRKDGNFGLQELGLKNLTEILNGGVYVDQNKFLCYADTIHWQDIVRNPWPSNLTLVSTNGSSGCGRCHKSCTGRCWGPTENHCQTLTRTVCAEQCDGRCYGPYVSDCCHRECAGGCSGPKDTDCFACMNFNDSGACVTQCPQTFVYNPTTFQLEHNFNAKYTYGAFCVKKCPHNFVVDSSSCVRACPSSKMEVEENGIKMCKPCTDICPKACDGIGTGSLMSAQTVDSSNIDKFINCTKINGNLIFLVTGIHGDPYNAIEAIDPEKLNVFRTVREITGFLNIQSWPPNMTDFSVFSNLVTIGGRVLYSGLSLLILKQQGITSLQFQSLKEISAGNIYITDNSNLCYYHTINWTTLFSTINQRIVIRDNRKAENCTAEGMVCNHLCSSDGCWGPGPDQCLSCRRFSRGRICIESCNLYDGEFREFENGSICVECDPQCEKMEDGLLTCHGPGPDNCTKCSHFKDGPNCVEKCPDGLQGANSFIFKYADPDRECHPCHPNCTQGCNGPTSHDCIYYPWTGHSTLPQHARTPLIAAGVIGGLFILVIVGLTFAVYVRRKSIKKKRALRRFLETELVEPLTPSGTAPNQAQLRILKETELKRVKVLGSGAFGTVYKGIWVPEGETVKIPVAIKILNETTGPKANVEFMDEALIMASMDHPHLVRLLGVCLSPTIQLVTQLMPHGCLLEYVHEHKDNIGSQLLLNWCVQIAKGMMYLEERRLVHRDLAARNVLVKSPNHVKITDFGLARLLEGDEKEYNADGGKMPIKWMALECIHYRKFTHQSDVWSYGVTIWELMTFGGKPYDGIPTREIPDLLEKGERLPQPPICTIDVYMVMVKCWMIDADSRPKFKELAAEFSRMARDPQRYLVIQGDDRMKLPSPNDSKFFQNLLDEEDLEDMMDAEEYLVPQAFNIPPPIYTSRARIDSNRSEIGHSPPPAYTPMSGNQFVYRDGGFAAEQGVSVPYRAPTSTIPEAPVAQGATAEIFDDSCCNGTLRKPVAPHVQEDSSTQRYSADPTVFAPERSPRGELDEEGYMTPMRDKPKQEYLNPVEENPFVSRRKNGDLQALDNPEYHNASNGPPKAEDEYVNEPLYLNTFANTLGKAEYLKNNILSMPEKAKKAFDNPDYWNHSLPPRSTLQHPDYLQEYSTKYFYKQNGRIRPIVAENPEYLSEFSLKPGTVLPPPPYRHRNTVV
Chain of Platelet-derived growth factor receptor alpha (Homo sapiens) (P16234 whole entry): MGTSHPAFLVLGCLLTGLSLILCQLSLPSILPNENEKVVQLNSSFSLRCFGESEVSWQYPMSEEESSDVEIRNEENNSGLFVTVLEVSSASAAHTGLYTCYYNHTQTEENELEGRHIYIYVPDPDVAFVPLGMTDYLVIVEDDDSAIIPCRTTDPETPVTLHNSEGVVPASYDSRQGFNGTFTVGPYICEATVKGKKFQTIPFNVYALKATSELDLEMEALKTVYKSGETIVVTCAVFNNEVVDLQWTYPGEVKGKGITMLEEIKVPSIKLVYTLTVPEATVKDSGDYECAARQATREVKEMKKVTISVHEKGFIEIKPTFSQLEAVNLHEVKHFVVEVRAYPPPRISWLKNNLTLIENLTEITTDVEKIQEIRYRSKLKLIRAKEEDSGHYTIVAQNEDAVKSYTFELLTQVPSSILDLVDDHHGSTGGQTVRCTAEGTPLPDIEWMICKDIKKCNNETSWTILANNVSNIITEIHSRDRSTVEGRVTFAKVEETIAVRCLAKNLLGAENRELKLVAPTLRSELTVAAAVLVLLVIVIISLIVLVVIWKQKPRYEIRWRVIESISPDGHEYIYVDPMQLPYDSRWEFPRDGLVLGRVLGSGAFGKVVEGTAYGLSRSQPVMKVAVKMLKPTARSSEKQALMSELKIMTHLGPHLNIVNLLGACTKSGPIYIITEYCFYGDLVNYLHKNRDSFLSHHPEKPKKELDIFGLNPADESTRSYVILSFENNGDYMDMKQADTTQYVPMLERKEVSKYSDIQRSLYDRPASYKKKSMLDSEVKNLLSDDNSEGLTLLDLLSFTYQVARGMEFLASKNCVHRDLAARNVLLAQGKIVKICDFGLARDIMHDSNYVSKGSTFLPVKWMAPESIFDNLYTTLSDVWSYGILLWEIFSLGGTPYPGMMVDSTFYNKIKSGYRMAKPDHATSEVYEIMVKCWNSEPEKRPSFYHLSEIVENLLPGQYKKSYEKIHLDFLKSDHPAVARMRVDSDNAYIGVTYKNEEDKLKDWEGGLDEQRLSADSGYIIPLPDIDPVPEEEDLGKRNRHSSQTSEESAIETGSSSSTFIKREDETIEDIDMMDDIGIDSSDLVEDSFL
Chain of Platelet-derived growth factor receptor beta (Homo sapiens) (P09619 whole entry): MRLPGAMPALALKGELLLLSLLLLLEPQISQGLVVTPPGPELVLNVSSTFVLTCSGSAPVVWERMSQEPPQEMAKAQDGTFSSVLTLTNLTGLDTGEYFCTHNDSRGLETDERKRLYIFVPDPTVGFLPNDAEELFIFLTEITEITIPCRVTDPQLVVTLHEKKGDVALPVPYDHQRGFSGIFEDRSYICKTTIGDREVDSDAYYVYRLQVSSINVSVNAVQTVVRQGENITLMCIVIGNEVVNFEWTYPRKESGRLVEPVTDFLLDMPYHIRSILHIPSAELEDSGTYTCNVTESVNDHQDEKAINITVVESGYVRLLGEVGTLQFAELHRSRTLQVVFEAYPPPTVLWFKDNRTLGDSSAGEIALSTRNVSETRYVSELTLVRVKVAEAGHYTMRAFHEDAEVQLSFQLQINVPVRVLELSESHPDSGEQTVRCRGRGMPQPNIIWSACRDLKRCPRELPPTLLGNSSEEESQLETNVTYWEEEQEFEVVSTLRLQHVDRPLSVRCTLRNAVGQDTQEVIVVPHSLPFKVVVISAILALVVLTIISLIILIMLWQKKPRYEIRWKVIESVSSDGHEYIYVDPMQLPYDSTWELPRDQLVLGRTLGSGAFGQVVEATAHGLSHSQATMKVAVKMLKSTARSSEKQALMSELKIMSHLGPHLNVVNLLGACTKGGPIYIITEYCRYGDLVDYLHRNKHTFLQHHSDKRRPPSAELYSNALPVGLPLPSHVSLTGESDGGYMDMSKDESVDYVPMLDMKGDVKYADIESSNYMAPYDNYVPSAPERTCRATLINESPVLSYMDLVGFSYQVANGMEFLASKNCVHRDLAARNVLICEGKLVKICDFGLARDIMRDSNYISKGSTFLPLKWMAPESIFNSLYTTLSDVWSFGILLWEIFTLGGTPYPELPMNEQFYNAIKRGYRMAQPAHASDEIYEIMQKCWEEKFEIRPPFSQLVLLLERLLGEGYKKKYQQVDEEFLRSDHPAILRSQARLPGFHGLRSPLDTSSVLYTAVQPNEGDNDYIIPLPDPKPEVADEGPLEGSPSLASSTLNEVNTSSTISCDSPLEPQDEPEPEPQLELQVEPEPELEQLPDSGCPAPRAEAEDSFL
Chain of Cyclin-dependent kinase 1 (Homo sapiens) (P06493 whole entry, looked up): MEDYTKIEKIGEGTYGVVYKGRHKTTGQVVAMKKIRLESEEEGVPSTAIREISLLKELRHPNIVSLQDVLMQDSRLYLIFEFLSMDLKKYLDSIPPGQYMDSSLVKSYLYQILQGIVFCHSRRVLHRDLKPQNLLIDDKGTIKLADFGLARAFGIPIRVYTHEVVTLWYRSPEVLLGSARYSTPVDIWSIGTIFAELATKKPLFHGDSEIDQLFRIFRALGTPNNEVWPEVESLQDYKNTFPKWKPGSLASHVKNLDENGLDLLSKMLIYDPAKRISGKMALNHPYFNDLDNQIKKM

Compound: CCN(CC)CCNC(=O)c1c(C)[nH]c(/C=C2\C(=O)Nc3ccc(F)cc32)c1C
- inhibition [1]: 70.6%
- inhibition [2]: 71.4%

Compound: CCCCCCCCCCCC(=O)NNC(=O)C1Sc2ccccc2N(CC)C1=O (stereo not drawn)
- IC50 [3]: 8 µM
- inhibition [4]: Active
- Activity (HepG2 [5]): Active
- Activity (3T3-L1 [6]): Active

Compound: CN(C)C/C=C/C(=O)Nc1cc2c(Nc3ccc(F)c(Cl)c3)ncnc2cc1O[C@H]1CCOC1
- inhibition [7]: 88.1%

Compound: Cn1sc(=O)n(Cc2ccccc2)c1=O
- Activity (3T3-L1 [8]): Active
- inhibition [9]: Active
- Activity (HepG2 [10]): Active

Compound: Cn1cc(C2=C(c3ccc(Cl)cc3Cl)C(=O)NC2=O)c2ccccc21
- inhibition [11]: Active
- Activity (3T3-L1 [12]): Active
- Activity (HepG2 [13]): Active

Compound: CCCCCCCCCCCC(=O)NNC(=O)C1Sc2ccccc2N(Cc2ccccc2)C1=O (stereo not drawn)
- inhibition [1]: 0%
- IC50 [3]: 10 µM
- inhibition [14]: 12.2%
- inhibition [15]: 29.3%
- inhibition [7]: 0%
- inhibition [16]: 36%
- inhibition [4]: Active
- inhibition [17]: 13%
- Activity (HepG2 [5]): Active
- inhibition [2]: 0%
- inhibition [18]: 12.4%
- inhibition [19]: Active
- Activity (3T3-L1 [6]): Active
- inhibition [20]: 0%

Compound: CCCCCCCCCCCCCC(=O)NCC(=O)N[C@@H](CCCCN)C(=O)N[C@@H](CCC(=O)O)C(=O)N[C@@H](C)C(=O)N1CCC[C@H]1C(=O)N1CCC[C@H]1C(=O)N[C@@H](C)C(=O)N1CCC[C@H]1C(=O)N1CCC[C@H]1C(=O)N[C@@H](CCC(N)=O)C(=O)N[C@@H](COP(=O)(O)O)C(=O)N1CCC[C@H]1C(N)=O (Myristoyl-GKEAPPAPPQ[pS]P-NH2)
- IC50 [3]: 40 µM
